Measured values published in patent US9302999B2, “Substituted triazoles as herbicides” (E. I. DU PONT DE NEMOURS AND COMPANY, priority 2012, dated 2016).

Key:
Type in all cases: in vivo
[1] = tested on: dayflower, VA (Virginia (VA) dayflower, Commelina virginica); assay: Test F pre-/postemergence: dayflower, VA; details: Preemergence
Outline: (§1)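 Visual response scores, 0 meaning no effect and 100 complete control, were assigned against untreated controls 14 to 21 days after treatment. Test chemicals in a surfactant-containing non-phytotoxic solvent were applied preemergence to seeded silt loam soil or postemergence to 2–18 cm plants in peat-based medium.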

[2] = tested on: ryegrass, Italian (Italian ryegrass, Lolium multiflorum); assay: Test F pre-/postemergence: ryegrass, Italian; details: Preemergence
Excerpt: Seeds of plant species selected from corn (Zea mays), soybean (Glycine max), velvetleaf (Abutilon theophrasti), lambsquarters (Chenopodium album), poinsettia, wild (wild poinsettia, Euphorbia heterophylla), pigweed, palmer (palmer pigweed, Amaranthus palmeri), waterhemp (common waterhemp, Amaranthus rudis), surinam grass (Brachiaria decumbens), crabgrass, Brazil (Brazilian crabgrass, Digitaria horizontalis), panicum, fall (fall panicum Panicum dichotomiflorum), crabgrass, large (large crabgrass, Digitaria sanguinalis), foxtail, giant (giant foxtail, Setaria faberii), foxtail, green (green foxtail Setaria viridis), goosegrass (Eleusine indica), ragweed (common ragweed, Ambrosia elatior), barnyardgrass (Echinochloa crus-galli), sandbur (southern sandbur, Cenchrus echinatus), arrowleaf sida (Sida rhombifolia), ryegrass, Italian (Italian ryegrass, Lolium multiflorum), dayflower, VA (Virginia (VA) dayflower, Commelina virginica), field bindweed (Convolvulus arvensis), cocklebur (common cocklebur, Xanthium strumarium), morningglory (Ipomoea coccinea), nightshade (eastern black nightshade, Solanum ptycanthum), kochia (Kochia scoparia), nutsedge, yellow (yellow nutsedge, Cyperus esculentus), johnsongrass (Sorghum halepense), smartweed (ladysthumb smartweed, Polygonum persicaria), and beggarticks (hairy beggarticks, Bidens pilosa), were planted into a silt loam soil and treated preemergence with test chemicals formulated in a non-phytotoxic solvent mixture which included a surfactant. At the same time, plants selected from these crop and weed species and also pigweed (Amaranthus retroflexus), waterhemp_RES1 (ALS/Triazine resistant common waterhemp, Amaranthus rudis) and waterhemp_RES2 (ALS/HPPD resistant common waterhemp, Amaranthus rudis) were planted in pots containing a planting medium comprising spaghnum peat moss, vermiculite, wetting agent and starter nutrients treated with postemergence applications of some of the test chemicals formulated in the same manner. Plants ranged in height from 2 to 18 cm for postemergence treatments (1- to 4-leaf stage).
(§2) Treated plants and controls were maintained in a greenhouse for 14 to 21 days, after which time all species were compared to controls and visually evaluated. Plant response ratings, summarized in Table E, are based on a scale of 0 to 100 where 0 is no effect and 100 is complete control. A dash (-) response means no test result.

Oilseed Rape = assay: Test C pre-/postemergence: oilseed rape; details: Preemergence, 250 g ai/ha; scale 0 to 100, 0 no effect, 100 complete control
Excerpt: Seeds of plant species selected from blackgrass (Alopecurus myosuroides), bromegrass, downy (downy bromegrass, Bromus tectorum), foxtail, green (green foxtail, Setaria viridis), ryegrass, Italian (Italian ryegrass, Lolium multiflorum), winter wheat (Triticum aestivum), wild oat (Avena fatua), galium (catchweed bedstraw, Galium aparine), bermudagrass (Cynodon dactylon), surinam grass (Brachiaria decumbens), cocklebur (common cocklebur, Xanthium strumarium), corn (Zea mays), large crabgrass (Digitaria sanguinalis), woolly cupgrass (Eriochloa villosa), foxtail, giant (giant foxtail, Setaria faberii), goosegrass (Eleusine indica), johnsongrass (Sorghum halepense), kochia (Kochia scoparia), lambsquarters (Chenopodium album), morningglory (Ipomoea coccinea), nightshade (eastern black nightshade, Solanum ptycanthum), nutsedge, yellow (yellow nutsedge, Cyperus esculentus), pigweed (Amaranthus retroflexus), ragweed (common ragweed, Ambrosia elation), soybean (Glycine max), common (oilseed) sunflower (Helianthus annuus), Russian thistle (Salsola kali) and velvetleaf (Abutilon theophrasti) were planted into a blend of loam soil and sand and treated preemergence with test chemicals formulated in a non-phytotoxic solvent mixture which included a surfactant.
At the same time, plants selected from these crop and weed species and also barley (winter barley, Hordeum vulgare), canarygrass (Phalaris minor), chickweed (common chickweed, Stellaria media) windgrass (Apera spica-venti) and deadnettle (henbit deadnettle, Lamium amplexicaule) were planted in pots containing Redi-Earth® planting medium (Scotts Company, 14111 Scottslawn Road, Marysville, Ohio 43041) comprising spaghnum peat moss, vermiculite, wetting agent and starter nutrients and treated with postemergence applications of test chemicals formulated in the same manner. Plants ranged in height from 2 to 18 cm (1- to 4-leaf stage) for postemergence treatments.
as §2, with “13” for “14”, “15” for “21”, “C,” for “E,”

[3] = tested on: crabgrass, Brazil (Brazilian crabgrass, Digitaria horizontalis); assay: Test F pre-/postemergence: crabgrass, Brazil; details: Preemergence
Outline: as §1

[4] = 16 g ai/ha, scale 0 to 100 (0 no effect, 100 complete control)
[5] = 31 g ai/ha, scale 0 to 100 (0 no effect, 100 complete control)

Which “Plant response rating, Dayflower, VA” value [1, 4] does the source give for `CCCc1nn(-c2ccc(F)cc2)nc1Cc1ccnc(C(F)(F)F)c1` [Compound 153] here?
Its value is 5.

And the “Plant response rating, Dayflower, VA” value [1, 5]?
Its value is 10.

And the “Plant response rating, Dayflower, VA” value ([1]; 62 g ai/ha, scale 0 to 100)?
The value was 40.

And the “Plant response rating, Dayflower, VA” value ([1]; 125 g ai/ha, scale 0 to 100)?
The value was 80.

And the “Plant response rating, Dayflower, VA” value ([1]; 250 g ai/ha, scale 0 to 100)?
Its value is 95.

What about the “Plant response rating, Ryegrass, Italian” value [2, 4] of the same compound?
Its value is 5.

And the “Plant response rating, Ryegrass, Italian” value [2, 5]?
The value was 5.

And the “Plant response rating, Ryegrass, Italian” value ([2]; 125 g ai/ha, scale 0 to 100)?
Its value is 65.

And the “Plant response rating, Ryegrass, Italian” value ([2]; 250 g ai/ha, scale 0 to 100)?
Its value is 95.

And the “Plant response rating, Oilseed Rape” value (Oilseed Rape)?
Its value is 98.

And the “Plant response rating, Crabgrass, Brazil” value [3, 4]?
Its value is 98.

What about the “Plant response rating, Crabgrass, Brazil” value [3, 5] of the same compound?
Its value is 100.

What about the “Plant response rating, Crabgrass, Brazil” value ([3]; 62 g ai/ha, scale 0 to 100) of the same compound?
Its value is 100.

What about the “Plant response rating, Crabgrass, Brazil” value ([3]; 125 g ai/ha, scale 0 to 100) of the same compound?
Its value is 100.

What about the “Plant response rating, Crabgrass, Brazil” value ([3]; 250 g ai/ha, scale 0 to 100) of the same compound?
The value was 100.
